Data: ChEMBL document CHEMBL2384963, “Diterpenoids from the twigs and leaves of Fokienia hodginsii” (J Nat Prod, 2013)
pIC50: −log10 of the molar value.

Assays:
Type in all cases: functional, cell-based
SMMC-7721 = assay: Cytotoxicity against human SMMC7721 cells after 48 hrs by MTT assay; settings: SMMC-7721, 48 h
SW480 = assay: Cytotoxicity against human SW480 cells after 48 hrs by MTT assay; settings: SW480, 48 h
MCF7 = assay: Cytotoxicity against human MCF7 cells after 48 hrs by MTT assay; settings: MCF7, 48 h
HL-60 = assay: Cytotoxicity against human HL60 cells after 48 hrs by MTT assay; settings: HL-60, 48 h
A549 = assay: Cytotoxicity against human A549 cells after 48 hrs by MTT assay; settings: A549, 48 h

Row | Compound | pIC50 (SMMC-7721) | pIC50 (SW480) | pIC50 (MCF7) | pIC50 (HL-60) | pIC50 (A549)
1 | C=CC(=C)CC[C@@H]1[C@@]2(C)CCC[C@](C)(COC(=O)/C=C/c3ccc(O)cc3)[C@@H]2CC[C@@]1(C)O | 4.81 | 4.71 | 4.78 | 4.93 | 4.69
2 | C=C1CC[C@@H]2[C@](C)(CCC[C@@]2(C)C(=O)O)[C@H]1CC/C(C)=C/COC(C)=O | < 4.40 | < 4.40 | < 4.40 | < 4.40 | < 4.40
3 | C=C[C@@](C)(O)CC[C@H]1C(=C)CC[C@@H]2[C@]1(C)CCC[C@]2(C)C(=O)O | < 4.40 | < 4.40 | < 4.40 | < 4.40 | < 4.40
4 | C=CC(=C)CC[C@@H]1[C@@]2(C)CCC[C@](C)(COC(=O)/C=C/c3ccc(O)c(OC)c3)[C@@H]2CC[C@@]1(C)O | 4.85 | 4.77 | 4.87 | 4.85 | 4.78
5 | C=CC(=C)CC[C@@H]1[C@@]2(C)CCC[C@](C)(COC(=O)/C=C\c3ccc(O)cc3)[C@@H]2CC[C@@]1(C)O | 4.79 | 4.87 | 4.82 | 4.85 | 4.77
6 | CC(C)c1cc2c(cc1O)[C@@]1(CO)CCCC(C)(C)[C@H]1CC2 | 4.82 | 4.82 | 4.82 | 4.81 | 4.68
7 | C=C[C@]1(C)C=C2CC[C@H]3[C@](C)(CO)CCC[C@]3(C)[C@H]2[C@H](O)C1 | < 4.40 | < 4.40 | < 4.40 | < 4.40 | < 4.40
8 | C=C[C@]1(C)C=C2CC[C@H]3[C@](C)(COC(C)=O)CCC[C@]3(C)[C@H]2[C@H](O)C1 | < 4.40 | < 4.40 | < 4.40 | < 4.40 | < 4.40
9 | C=C[C@]1(C)C=C2CC[C@H]3C(C)(C)[C@@H](O)CC[C@]3(C)[C@H]2[C@H](O)C1 | < 4.40 | < 4.40 | < 4.40 | < 4.40 | < 4.40
10 | C=C[C@]1(C)C=C2CC[C@H]3C(C)(C)[C@@H](O)CC[C@]3(C)[C@H]2[C@H](OC(C)=O)C1 | < 4.40 | < 4.40 | < 4.40 | < 4.40 | < 4.40
11 | C=C[C@@]1(C)C=C[C@H]2C(=C1)[C@H](O)C[C@H]1[C@](C)(CO)CCC[C@]21C | < 4.40 | < 4.40 | < 4.40 | < 4.40 | < 4.40
12 | C=CC(=C)[C@H](O)C[C@H]1C(=C)CC[C@@H]2[C@]1(C)CCC[C@]2(C)C(=O)O | < 4.40 | < 4.40 | < 4.40 | < 4.40 | < 4.40
13 | C=C[C@@]1(C)O[C@H]1C[C@H]1C(=C)CC[C@@H]2[C@]1(C)CCC[C@]2(C)C(=O)O | < 4.40 | < 4.40 | < 4.40 | < 4.40 | < 4.40
14 | C=C[C@]1(C)O[C@H]1C[C@H]1C(=C)CC[C@@H]2[C@]1(C)CCC[C@]2(C)C(=O)O | < 4.40 | < 4.40 | < 4.40 | < 4.40 | < 4.40
15 | C=CC(=C)CC[C@@H]1[C@@]2(C)CCC[C@](C)(COC(=O)/C=C\c3ccc(O)c(OC)c3)[C@@H]2CC[C@@]1(C)O | 5.12 | 4.75 | 4.81 | 5.04 | 4.76
16 | CC(C)C1=C[C@]2(O)CC[C@H]3C(C)(C)CCC[C@]3(O)CC2=CC1=O | < 4.40 | < 4.40 | < 4.40 | < 4.40 | < 4.40
17 | C=C[C@]1(C)C=C2CC[C@H]3C(C)(C)CCC[C@]3(C)[C@H]2[C@H](O)C1 | < 4.40 | < 4.40 | < 4.40 | < 4.40 | < 4.40
18 | C=CC(=C)[C@@H](O)C[C@H]1C(=C)CC[C@@H]2[C@]1(C)CCC[C@]2(C)C(=O)O | < 4.40 | < 4.40 | < 4.40 | < 4.40 | < 4.40
19 | C=C/C(C)=C/C[C@H]1C(=C)CC[C@@H]2[C@]1(C)CCC[C@]2(C)C=O | < 4.40 | < 4.40 | < 4.40 | < 4.40 | < 4.40
20 | C=C1CC[C@@H]2[C@](C)(CCC[C@]2(C)C(=O)O)[C@H]1C/C=C(\C)C=O | < 4.40 | < 4.40 | < 4.40 | < 4.40 | < 4.40
21 | C=C/C(C)=C/C[C@H]1C(=C)CC[C@@H]2[C@]1(C)CCC[C@]2(C)C(=O)O | < 4.40 | < 4.40 | < 4.40 | < 4.40 | < 4.40
22 | CC(C)c1cc2c(cc1O)[C@@]1(C)CCCC(C)(C)[C@@H]1CC2 [FERRUGINOL] | < 4.40 | < 4.40 | < 4.40 | < 4.40 | < 4.40
23 | C=C1CC[C@@H]2[C@](C)(CCC[C@]2(C)C(=O)O)[C@H]1CC/C(C)=C/CO [ISOCUPRESSIC ACID] | < 4.40 | < 4.40 | < 4.40 | < 4.40 | < 4.40
24 | C=C1CC[C@@H]2[C@](C)(CCC[C@]2(C)C(=O)O)[C@H]1CCC1=CCOC1=O [PINUSOLIDIC ACID] | < 4.40 | < 4.40 | < 4.40 | < 4.40 | < 4.40
25 | CC(C)c1cc2c(cc1O)[C@@]1(C=O)CCCC(C)(C)[C@@H]1CC2 [PISIFERAL] | 4.71 | 4.84 | 4.81 | 4.85 | 4.68
26 | CC(C)c1cc2c(cc1O)[C@@]1(CO)CCCC(C)(C)[C@@H]1CC2 [PISIFEROL] | < 4.40 | < 4.40 | < 4.40 | < 4.40 | < 4.40
27 | C=C[C@]1(C)C=C2CC[C@H]3[C@](C)(CO)[C@@H](O)CC[C@]3(C)[C@H]2CC1 [SANDARACOPIMARADIENEDIOL] | < 4.40 | < 4.40 | < 4.40 | < 4.40 | < 4.40
28 | C=C[C@]1(C)C=C2CC[C@@H]3[C@](C)(CCC[C@@]3(C)C(=O)O)[C@H]2CC1 [SANDARACOPIMARIC ACID] | < 4.40 | < 4.40 | < 4.40 | < 4.40 | < 4.40
